Results reported in PubChem BioAssay (NCI).
Several values for one entry are separate records, joined by “and”; a condition that tells them apart may be missing. Identical values can stand only once.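 48-hour exposure; five concentrations; linearly interpolated endpoints. GI50 marks 50% less growth. TGI: total growth inhibition.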

Legend:
Assay in all cases: NCI-60 cell line screen, 48 h
[1] = test system: MDA-N
[2] = test system: LXFL 529 NSCLC
[3] = test system: HOP-18 NSCLC
[4] = test system: DMS 273 small cell lung
[5] = test system: DLD-1 colon
[6] = test system: DMS 114 small cell lung
[7] = test system: SNB-78 CNS
[8] = test system: XF 498 CNS
[9] = test system: RXF-631 renal

| SMILES | TGI [1] | TGI [2] [µM] | TGI [3] [µM] | TGI [4] | TGI [5] [µM] | TGI [6] [µM] | TGI [7] | TGI [8] | TGI [9] | further results |
| --- | --- | --- | --- | --- | --- | --- | --- | --- | --- | --- |
| CS(=O)(=O)CC(=O)c1ccccc1 | > 100 µM |  |  |  |  |  |  |  |  |  |
| O=c1ssc(Cl)c1Cl | > 10 µM |  |  |  |  |  |  |  |  |  |
| CC(=O)[CH-]C(=O)c1ccccc1.CC(=O)[CH-]C(=O)c1ccccc1.C[C@]12CCC(=O)C=C1CC[C@@H]1C2CC[C@@]2(C)C1CC[C@@H]2[O-].C[C@]12CCC(=O)C=C1CC[C@@H]1C2CC[C@@]2(C)C1CC[C@@H]2[O-].Cl.[Ti+4] (stereo partly drawn) |  | 87.3 | 91.4 | 69.5 µM | 45.9 |  |  |  |  | GI50 [2]: 24.3 µM; GI50 [3]: 28.6 µM; GI50 [4]: 21.2 µM; GI50 [5]: 18.3 µM |
| Cc1ccccc1-n1c2nc(=O)n(C)c(=O)c-2nc2ccccc21 |  | 26.3 | 24.2 | 26.7 µM | 42.4 | 18.3 | 43.1 µM | 31.3 µM | 36.3 µM |  |
| NCOC(=O)Cc1ccc(Br)cc1 | > 100 µM |  |  |  |  |  |  |  |  |  |
| Cc1ccc(NC(=O)/C(Cl)=C(/Cl)C(=O)O)cc1 |  | 26.6 | 34.7 | 41.7 µM | 33.5 | 34.2 | 53.4 µM |  | 49.8 µM |  |
| NCCNCc1c2ccccc2c(CNCCN)c2ccccc12 |  | 22.1 | 90.1 |  | > 100 | 33.1 | 82.1 µM |  | > 100 µM |  |
| O=C1CCSC2=C1SCc1sccc12 |  | > 100 |  |  | > 100 | > 100 | > 100 µM | > 100 µM |  |  |
| CC(=O)OC12COC1CC(O)C1(C)C(=O)C(O)C3=C(C)C(O)CC(O)(C(OC(=O)c4ccccc4)C21)C3(C)C (stereo not drawn) |  |  |  | 17.6 µM |  |  | > 100 µM | > 100 µM |  |  |
| Cc1ccc2c(c1)S(=O)(=O)c1ccc3ccccc3c1N2 | > 100 µM |  |  |  |  |  |  |  |  |  |
| CN1CCN(C)C12C=CC=CC21CC1 |  |  | > 100 | > 100 µM | > 100 | > 100 | > 100 µM | > 100 µM | > 100 µM |  |
| CCNC(=O)O/N=C1\CCC2[C@@H]3CC=C4C[C@@H](OC5CCCCO5)CC[C@]4(C)C3CC[C@]12C (stereo partly drawn) |  | 2.43 | 4.28 |  | > 100 |  | 6.42 µM |  | 22.4 µM |  |
| CC(C)(C)CC(N)=O | > 100 µM |  |  |  |  |  |  |  |  |  |
| CC1(c2ccccc2)CC(c2cccc([N+](=O)[O-])c2)=NO1 (stereo not drawn) |  | > 100 | > 100 | > 100 µM | > 100 | > 100 | > 100 µM |  | > 100 µM |  |
| CC#CC1C2CCCC1(CSc1ccccc1)NC(=O)O2 (stereo not drawn) |  | > 100 | > 100 | > 100 µM | > 100 | > 100 | > 100 µM | > 100 µM | > 100 µM |  |
| CC1=CC(N2C(=O)C(C)=CC2O)NC1=O (stereo not drawn) |  | > 100 |  |  | > 100 |  | > 100 µM |  |  |  |
| O=C(O)c1ccc(C(=O)O)c(C(=O)Nc2ccc3c(c2)C(=O)c2ccccc2-3)c1 | > 100 µM |  |  |  |  |  |  |  |  |  |
| c1ccc2c(c1)N=C(c1cccc3ccccc13)CC(c1ccc3c(c1)OCO3)S2 (stereo not drawn) |  | > 100 | > 100 | > 100 µM | > 100 |  | > 100 µM | > 100 µM | > 100 µM |  |

| SMILES | TGI [1] | TGI [2] [µM] | TGI [3] [µM] | TGI [4] | TGI [5] [µM] | TGI [6] [µM] | TGI [7] | TGI [8] | TGI [9] | further results |
| --- | --- | --- | --- | --- | --- | --- | --- | --- | --- | --- |
| C=C(C(=C)P(=S)(c1ccccc1)c1ccccc1)P(=S)(c1ccccc1)c1ccccc1 |  | > 100 | > 100 | > 100 µM |  | > 100 | > 100 µM | > 100 µM |  |  |
| COc1ccccc1NC(=O)c1nc2ccc([N+](=O)[O-])cc2nc1C |  | > 100 | 39.9 | > 100 µM | > 100 | > 100 |  | 73.8 µM |  |  |
| N/N=c1\c2ccccc2c2cc3c(cc12)/c(=N/N)c1ccccc13 |  | > 100 | > 100 | > 100 µM | > 100 | > 100 | > 100 µM |  | > 100 µM |  |
| O=C(/C(=C\c1ccc(Cl)cc1)c1ccccc1)c1ccccc1 |  | > 100 | > 100 |  | > 100 | > 100 | > 100 µM | 95.5 µM |  |  |
| OCc1c[te]c(-c2ccccc2)c1 |  | > 100 |  | > 100 µM | > 100 | 91.7 | > 100 µM |  | > 100 µM |  |
| Cc1cc(C(C)(C)C)cc(CNC2CCCCC2)c1O | 29.9 µM |  |  |  |  |  |  |  |  |  |
| Cc1ccc(S(=O)OCC23CC4CC(CC(C4)C2)C3)cc1 (stereo not drawn) |  | > 100 | > 100 | > 100 µM | > 100 |  | > 100 µM | > 100 µM |  |  |
| NNC(=O)N/N=C1\C(=O)N(c2ccc(Cl)c(Cl)c2)C(=O)C(=O)C1c1nc2ccccc2s1 (stereo not drawn) |  | > 100 | > 100 | > 100 µM | > 100 | > 100 | > 100 µM | > 100 µM |  |  |
| CC(C)(C)c1c2c(c(C(C)(C)C)c3c1OCN(Cc1ccccc1)C3)OCN(Cc1ccccc1)C2 | 30.3 µM |  |  |  |  |  |  |  |  |  |
| O=C(COC(=O)c1cccc2c(=O)c3ccccc3[nH]c12)Nc1ccc(C(=O)O)cc1 |  |  | > 100 |  | > 100 | > 100 | > 100 µM | 95.6 µM | > 100 µM |  |
| COc1cc2c(cc1OC)C1Cc3cc(OC)c(OC)cc3C(C2)N1C | > 75 µM | > 100 |  |  | > 100 |  | > 100 µM | > 100 µM |  |  |
| Cc1cc(C)nc(NS(=O)(=O)c2ccc(Nc3c4ccc(Cl)cc4nc4c(C(=O)NCCN(C)C)cccc34)cc2)n1 |  | > 100 |  | > 100 µM | > 100 | > 100 | > 100 µM | > 100 µM | > 100 µM |  |
| COC(=O)C(Cc1nc2ccccc2nc1C)/C(=N\NC(N)=O)C(=O)Nc1cccc([N+](=O)[O-])c1 (stereo not drawn) |  | > 100 | > 100 |  | > 100 | > 100 | > 100 µM | > 100 µM | > 100 µM |  |
| COC(=O)C1=C(C(=O)OC)C2(C)Nc3ccccc3C2=C(c2ccccc2)C1 (stereo not drawn) |  | 32.1 |  | 43.7 µM | > 100 | 44.4 | 46.9 µM | 27 µM |  |  |
| COc1ccc(C(=O)C(c2ccc(OCc3ccccc3)cc2)c2ccc(OCc3ccccc3)cc2)cc1 |  |  |  | > 100 µM | > 100 | > 100 | > 100 µM | > 100 µM | > 100 µM |  |
| COc1ccc(C2C(C)C(=O)C(C)C(c3ccc(OC)cc3)N2N=O)cc1 (stereo not drawn) | 381 µM | > 1000 | > 1000 | 750 µM and > 1000 µM | > 1000 | > 1000 | > 78.2 µM and 750 µM and > 902 µM | 69.7 µM and 160 µM and > 460 µM | 750 µM and 281 µM | GI50 [6]: > 1 mM; GI50 [7]: > 46.2 µM and 96.1 µM; GI50 [8]: 27 µM and 39.1 µM; GI50 [2]: > 1000 µM; GI50 [3]: > 1000 µM; GI50 [9]: 270 µM; GI50 [4]: 609 µM; GI50 [5]: > 750 µM |
| Cc1c(O)c2c(c(O)c1Br)C(=O)C=CC2=O | 0.615 µM and 2.08 µM |  |  |  |  |  |  |  |  | GI50 [1]: 630 nM |
| CC1OC(OC2C(OC3CCC4(C)C(CCC5(C)C4CC=C4C6CC(C)(C)CCC6(C(=O)O)CCC45C)C3(C)CO)OCC(O)C2O)C(O)C(O)C1O (stereo not drawn) | 39.9 µM |  |  |  |  |  |  |  |  |  |
